Reference: ChEMBL document CHEMBL5325425, “Design, synthesis and biological evaluation of pyrrolopyrimidine derivatives as novel and selective positive modulator of the small conductance Ca2+-activated K+ channels” (Eur J Med Chem, 2023)

Columns and labels:
[1] = Activation of rat SK2 variant a transfected in human tsA201 cells coexpressing CaM/GFP in presence of Ca2+ by […]; assay type: cell-based
[2] = Apparent permeability across apical to basal side in human BMEC cells at 10 ug/ml incubated for 24 hrs by BBB assay; assay type: ADME, cell-based; details: dose 10 µg/ml
[3] = MRT in fasted Sprague-Dawley rat at 100 mg/kg, po measured upto 12 hrs by LC-MS/MS analysis; assay type: ADME, organism-based; details: in vivo
[4] = Tmax in fasted Sprague-Dawley rat at 100 mg/kg, po measured upto 12 hrs by LC-MS/MS analysis; assay type: ADME, organism-based; details: in vivo
[5] = MRT in fasted Sprague-Dawley rat at 2 mg/kg, iv measured upto 12 hrs by LC-MS/MS analysis; assay type: ADME, organism-based; details: in vivo
[6] = Half life in fasted Sprague-Dawley rat at 100 mg/kg, po measured upto 12 hrs by LC-MS/MS analysis; assay type: ADME, organism-based; details: in vivo
[7] = AUC (0 to infinity) in fasted Sprague-Dawley rat at 2 mg/kg, iv measured upto 12 hrs by LC-MS/MS analysis; assay type: ADME, organism-based; design: time < 12 hrs, dose 2 mg/kg, route iv; details: in vivo
[8] = Cmax in fasted Sprague-Dawley rat at 2 mg/kg, iv measured upto 12 hrs by LC-MS/MS analysis; assay type: ADME, organism-based; design: dose 2 mg/kg, time < 12 hrs, route iv; details: in vivo
[9] = Apparent oral clearance in fasted Sprague-Dawley rat at 100 mg/kg, po measured upto 12 hrs by LC-MS/MS analysis; assay type: ADME, organism-based; details: in vivo
[10] = AUC (0 to t) in fasted Sprague-Dawley rat at 2 mg/kg, iv measured upto 12 hrs by LC-MS/MS analysis; assay type: ADME, organism-based; design: dose 2 mg/kg, time < 12 hrs, route iv; details: in vivo
[11] = Apparent oral clearance in fasted Sprague-Dawley rat at 2 mg/kg, iv measured upto 12 hrs by LC-MS/MS analysis; assay type: ADME, organism-based; details: in vivo
[12] = AUC (0 to t) in fasted Sprague-Dawley rat at 100 mg/kg, po measured upto 12 hrs by LC-MS/MS analysis; assay type: ADME, organism-based; design: time < 12 hrs, dose 100 mg/kg, route po; details: in vivo
[13] = Apparent volume of distribution during terminal phase in fasted Sprague-Dawley rat at 2 mg/kg, iv measured upto 12 hrs by LC-MS/MS analysis; assay type: ADME, organism-based; details: in vivo
[14] = Apparent volume of distribution during terminal phase in fasted Sprague-Dawley rat at 100 mg/kg, po measured upto 12 hrs by LC-MS/MS analysis; assay type: ADME, organism-based; details: in vivo, read-out: Vz/F
[15] = AUC (0 to infinity) in fasted Sprague-Dawley rat at 100 mg/kg, po measured upto 12 hrs by LC-MS/MS analysis; assay type: ADME, organism-based; design: time < 12 hrs, dose 100 mg/kg, route po; details: in vivo
[16] = Half life in fasted Sprague-Dawley rat at 2 mg/kg, iv measured upto 12 hrs by LC-MS/MS analysis; assay type: ADME, organism-based; details: in vivo
[17] = Oral bioavailability in fasted Sprague-Dawley rat at 100 mg/kg measured upto 12 hrs by LC-MS/MS analysis; assay type: ADME, organism-based; details: in vivo
[18] = Cmax in fasted Sprague-Dawley rat at 100 mg/kg, po measured upto 12 hrs by LC-MS/MS analysis; assay type: ADME, organism-based; design: time < 12 hrs, dose 100 mg/kg, route po; details: in vivo
HUVEC = test: Cytotoxicity against HUVEC cells assessed as cell viability at 0.1 to 10000 nM incubated for 24 hrs by CCK8 assay; assay type: toxicity, cell-based; details: human, 10 µM, dose 0.1-10000 nM
[19] = molecular target: T1, Small conductance calcium-activated potassium channel protein 1 (Homo sapiens, UniProt Q92952); test: Positive modulation of SK1 in HEK293 cells in presence of Ca2+ by patch-clamp method; assay type: cell-based
[20] = molecular target: T2, Small conductance calcium-activated potassium channel protein 2 (Homo sapiens, UniProt Q9H2S1); test: Positive modulation of SK2 in HEK293 cells in presence of Ca2+ by patch-clamp method; assay type: cell-based
[21] = molecular target: T1, Small conductance calcium-activated potassium channel protein 1; test: Positive modulation of SK1 (unknown origin)
[22] = molecular target: T2, Small conductance calcium-activated potassium channel protein 2; test: Positive modulation of SK2 (unknown origin)
[23] = molecular target: Small conductance calcium-activated potassium channel protein 3 (Homo sapiens, UniProt Q9UGI6); test: Positive modulation of SK3 (unknown origin)
Small conductance calcium-activated potassium channel protein 3, sequence (Q9UGI6 whole entry): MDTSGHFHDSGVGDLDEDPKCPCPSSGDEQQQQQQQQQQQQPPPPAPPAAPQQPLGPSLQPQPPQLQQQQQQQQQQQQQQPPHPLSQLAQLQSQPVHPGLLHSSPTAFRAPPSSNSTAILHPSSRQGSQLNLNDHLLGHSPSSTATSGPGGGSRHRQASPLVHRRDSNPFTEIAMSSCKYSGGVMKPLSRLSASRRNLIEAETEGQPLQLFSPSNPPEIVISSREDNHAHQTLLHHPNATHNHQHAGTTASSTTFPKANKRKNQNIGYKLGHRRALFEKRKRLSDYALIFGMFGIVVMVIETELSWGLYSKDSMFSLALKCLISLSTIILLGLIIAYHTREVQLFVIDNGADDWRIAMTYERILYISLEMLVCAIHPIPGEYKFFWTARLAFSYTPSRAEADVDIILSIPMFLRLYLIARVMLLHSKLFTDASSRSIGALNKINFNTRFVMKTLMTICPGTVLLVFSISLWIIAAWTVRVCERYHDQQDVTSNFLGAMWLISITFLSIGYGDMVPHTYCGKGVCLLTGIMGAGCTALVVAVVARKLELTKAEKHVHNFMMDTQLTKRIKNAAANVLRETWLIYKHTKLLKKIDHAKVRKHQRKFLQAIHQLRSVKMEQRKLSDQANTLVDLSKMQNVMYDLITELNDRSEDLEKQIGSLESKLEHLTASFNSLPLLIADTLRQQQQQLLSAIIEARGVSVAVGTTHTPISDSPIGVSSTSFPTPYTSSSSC

T1 sequence (Q92952 whole entry): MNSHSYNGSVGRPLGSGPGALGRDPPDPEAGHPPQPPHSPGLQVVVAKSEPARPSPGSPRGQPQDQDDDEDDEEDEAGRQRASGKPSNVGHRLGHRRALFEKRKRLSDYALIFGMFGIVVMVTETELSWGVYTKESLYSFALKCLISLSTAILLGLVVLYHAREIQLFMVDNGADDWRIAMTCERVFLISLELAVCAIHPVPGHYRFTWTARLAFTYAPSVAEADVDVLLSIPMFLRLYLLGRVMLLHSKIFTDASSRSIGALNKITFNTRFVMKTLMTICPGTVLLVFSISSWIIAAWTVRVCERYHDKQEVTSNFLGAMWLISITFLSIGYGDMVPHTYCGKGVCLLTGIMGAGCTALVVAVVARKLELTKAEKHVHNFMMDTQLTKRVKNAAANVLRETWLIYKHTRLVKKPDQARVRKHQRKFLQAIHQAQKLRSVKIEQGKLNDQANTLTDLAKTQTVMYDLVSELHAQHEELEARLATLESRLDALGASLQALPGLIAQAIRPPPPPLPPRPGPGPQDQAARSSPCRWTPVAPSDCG
T2 sequence (Q9H2S1 whole entry): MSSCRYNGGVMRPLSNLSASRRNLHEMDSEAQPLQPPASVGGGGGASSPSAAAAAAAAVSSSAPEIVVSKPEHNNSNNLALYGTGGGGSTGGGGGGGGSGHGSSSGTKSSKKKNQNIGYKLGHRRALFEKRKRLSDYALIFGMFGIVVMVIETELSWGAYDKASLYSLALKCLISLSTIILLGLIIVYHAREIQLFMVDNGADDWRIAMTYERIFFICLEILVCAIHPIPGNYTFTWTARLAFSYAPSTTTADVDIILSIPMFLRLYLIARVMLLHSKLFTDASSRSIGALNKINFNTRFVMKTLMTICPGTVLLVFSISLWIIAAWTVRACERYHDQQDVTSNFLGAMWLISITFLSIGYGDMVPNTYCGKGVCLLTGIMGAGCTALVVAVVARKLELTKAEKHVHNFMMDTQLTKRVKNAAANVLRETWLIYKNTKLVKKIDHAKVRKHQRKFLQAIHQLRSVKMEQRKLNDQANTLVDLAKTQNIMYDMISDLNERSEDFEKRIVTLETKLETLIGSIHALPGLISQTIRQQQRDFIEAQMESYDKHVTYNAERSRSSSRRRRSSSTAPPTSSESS

Cc1cc(C)n(-c2nc(Nc3cccc(C(C)C)c3)c3c(ccn3C)n2)n1
EC50 [1]: 2.97 µM

Cc1ccn(-c2nc(Nc3cccc(C(F)(F)F)c3)c3ccn(C)c3n2)n1
EC50 [1]: 6.52 µM

COc1ccc(Nc2nc(-n3nc(C)cc3C)nc3c2ccn3C)cc1
EC50 [1]: 13.7 µM

Cc1cc(C)n(-c2nc(NC3CCCCC3)c3ccn(C)c3n2)n1
EC50 [1]: 2.28 µM

Cc1ccc(Nc2nc(-n3nc(C)cc3C)nc3sccc23)cc1
EC50 [1]: > 100 µM

Cc1cc(C)n(-c2nc(Nc3ccccc3)c3c(ccn3C)n2)n1
EC50 [1]: 8.43 µM

Cc1ccn(-c2nc(Nc3cccc(Br)c3)c3ccn(C)c3n2)n1
EC50 [1]: 0.48 µM

Cc1cc(C)n(-c2nc(Nc3ccc(Br)cc3)c3ccsc3n2)n1
EC50 [1]: > 100 µM

Cc1cc(C)n(-c2nc(Nc3cccc(C#N)c3)c3ccn(C)c3n2)n1
EC50 [1]: 4.08 µM

Cc1cc(C)n(-c2nc(Nc3cccc(C(F)(F)F)c3)c3c(ccn3C)n2)n1
EC50 [1]: 20.4 µM

Cc1cc(C)n(-c2nc(Nc3cccc(Br)c3)c3ccn(C)c3n2)n1
Papp A→B at 24 h, 10 ug/ml [2]: 3.23 ×10⁻⁶ cm/s | MRT [3]: 3.22 h | Tmax [4]: 2.67 h | MRT [5]: 1.5 h | half-life [6]: 1.25 h | AUC(0-inf) ([7]; Sprague-Dawley): 1370 ng·h/mL | Cmax [8]: 1620 ng/mL | CL/F ([9]; Sprague-Dawley, read-out: CLz/F (converted)): 813 mL/min/kg | AUC(0-t) at 12 h [10]: 1360 ng·h/mL | CLz/F [11]: 26.8 mL/min/kg | EC50 [1]: 0.73 µM | AUC(0-t) at 12 h ([12]; Sprague-Dawley): 2500 ng·h/mL | Vz/F [13]: 4.791 L/kg | Vd/F [14]: 92.9 L/kg | AUC(0-inf) [15]: 2510 ng·h/mL | half-life [16]: 1.97 h | bioavailability ([17]; Sprague-Dawley): 4.03% | Cmax [18]: 662 ng/mL | Activity (HUVEC): Non-Toxic

Cc1cc(C)n(-c2nc(Nc3ccc(Cl)cc3)c3ncn(C)c3n2)n1
EC50 [19]: > 100 µM | Papp A→B at 24 h, 10 ug/ml [2]: 2.94 ×10⁻⁶ cm/s | EC50 [20]: 1.8 µM

COc1ccc(Nc2nc(-n3nc(C)cc3C)nc3sccc23)cc1
EC50 [1]: > 100 µM

CCc1ccc(Nc2nc(-n3nc(C)cc3C)nc3c2ccn3C)cc1
EC50 [1]: > 100 µM

Cc1cc(C)n(-c2nc(Nc3ccc(C(C)C)cc3)c3ccn(C)c3n2)n1
EC50 [1]: 3.81 µM

Cc1cc(C)n(-c2nc(Nc3ccc(F)c(Cl)c3)c3ccn(C)c3n2)n1
EC50 [1]: 1.79 µM

Cc1cccc(Nc2nc(-n3nc(C)cc3C)nc3ccn(C)c23)c1
EC50 [1]: 7.71 µM

CCc1ccc(Nc2nc(-n3nc(C)cc3C)nc3ccn(C)c23)cc1
EC50 [1]: 3.65 µM

Cc1cc(C)n(-c2nc(Nc3ccccc3)c3ccn(C)c3n2)n1
EC50 [1]: 4.31 µM

Cc1cc(C)n(-c2nc(Nc3ccc(Br)cc3)c3ccn(C)c3n2)n1
EC50 [1]: 1.94 µM

CCc1ccc(Nc2nc(-n3nc(C)cc3C)nc3sccc23)cc1
EC50 [1]: > 100 µM

Cc1cc(C)n(-c2nc(Nc3cccc([N+](=O)[O-])c3)c3ccn(C)c3n2)n1
EC50 [1]: 5.73 µM

Cc1cc(C)n(-c2nc(NC3CCCCC3)c3ccsc3n2)n1
EC50 [1]: > 100 µM

Cc1cc(C)n(-c2nc(Nc3ccc(Cl)cc3)c3ccn(C)c3n2)n1
EC50 [1]: 3.5 µM

Cc1cc(C)n(-c2nc(Nc3ccc(Cl)c(C(F)(F)F)c3)c3ccn(C)c3n2)n1
EC50 [1]: 1.2 µM

O=C1Nc2c(ccc(Cl)c2Cl)C1=NO
EC50 [19]: 0.6 µM | EC50 [20]: 0.8 µM

Cc1cc(C)n(-c2nc(Nc3cccc(C(F)(F)F)c3)c3ccn(C)c3n2)n1
EC50 [1]: 1.6 µM

Cc1cc(C)n(-c2nc(Nc3ccc(F)cc3)c3ccn(C)c3n2)n1
EC50 [1]: 3.41 µM

Cc1cc(C)n(-c2nc(Nc3ccc(I)cc3)c3ccsc3n2)n1
EC50 [1]: > 100 µM

Cc1cccc(Nc2nc(-n3nc(C)cc3C)nc3c2ccn3C)c1
EC50 [1]: 6.54 µM

Cc1cc(C)n(-c2nc(Nc3cccc(Br)c3)c3c(ccn3C)n2)n1
EC50 [1]: 1.73 µM

Cc1cc(C)n(-c2nc(Nc3ccccc3)c3ccsc3n2)n1
EC50 [1]: 8.34 µM

Cc1cc(C)n(-c2nc(Nc3ccc(Cl)c(C(F)(F)F)c3)c3c(ccn3C)n2)n1
EC50 [1]: 29.8 µM

CCC(CC)Nc1nc(-n2nc(C)cc2C)nc2sccc12
EC50 [1]: > 100 µM

Cc1cc(C)n(-c2nc(Nc3ccc(C(C)C)cc3)c3ccsc3n2)n1
EC50 [1]: > 100 µM

Cc1ccn(-c2nc(Nc3ccc(F)cc3)c3ccn(C)c3n2)n1
Papp A→B at 24 h, 10 ug/ml [2]: 3.07 ×10⁻⁶ cm/s | MRT [3]: 3.37 h | Tmax [4]: 2.67 h | MRT [5]: 1.51 h | half-life [6]: 1.43 h | AUC ([7]; 12 h): 1168.28 ng·h/mL | Cmax [8]: 1680 ng/mL | CLz/F ([9]; po, 100 mg/kg, 12 h): 695.27 mL/min/kg | AUC(0-t) at 12 h [10]: 1110 ng·h/mL | CLz/F [11]: 31.72 mL/min/kg | AUCt ([12]; 12 h): 2427.989 ng·h/mL | Vz/F [13]: 6.111 L/kg | Vd/F [14]: 86.7 L/kg | half-life [16]: 2.63 h | F ([17]; po, 100 mg/kg, 12 h): 23.6% | Cmax [18]: 488 ng/mL | Activity (HUVEC): Non-Toxic

Cc1ccn(-c2nc(Nc3ccc(Cl)c(C(F)(F)F)c3)c3ccn(C)c3n2)n1
EC50 [1]: 0.5 µM

Cc1cc(C)n(-c2nc(N(C)Cc3ccccc3)c3ccn(C)c3n2)n1
EC50 [1]: 19.1 µM

Cc1cc(C)n(-c2nc(Nc3ccc(F)cc3)c3ccsc3n2)n1
EC50 [1]: 6.78 µM

Cc1ccc(Nc2nc(-n3nc(C)cc3C)nc3c2ccn3C)cc1
EC50 [1]: 3.1 µM

Cc1cc(NC2CCCCC2)nc(-n2nc(C)cc2C)n1
EC50 [21]: > 100 µM | EC50 [22]: 14 µM | EC50 [23]: 5.6 µM

Cc1cc(C)n(-c2nc(Nc3ccc(Cl)cc3)c3ccsc3n2)n1
EC50 [1]: > 100 µM
